# In PMC4104029, “Mechanism of Action of Compound-13: An α1-Selective Small Molecule Activator of AMPK” (Chemistry & Biology, 2014):
# Tests used:
# [1] = molecular target: T1, 6-phosphofructo-1 kinase (PFK1) (Mus musculus, UniProt P47857); experiment: PFK1 enzyme assay; assay type: biochemical
# T1 construct: made in house; host or cells: E. coli
# Description: (§1) Figure 1 The AMP Analog C2 Is a Potent AMPK Activator in Cell-Free Assays with Selectivity for α1 Complexes (A) The structure of the endogenous activator of AMPK, AMP; the AMP mimetic, C2; and the classical AMP mimetic, ZMP, and other AMPK activators are shown. […] (B) Recombinant AMPK complexes (α1β1γ1, α2β1γ1, α1β1γ2, and α1β2γ1) expressed in Spodoptera frugiperda were assayed for allosteric activation by AMP or C2. Results are expressed as the increase in activity relative to controls without ligand and represent the mean ± SD for three independent experiments. (C) Enzymes allosterically regulated by AMP (PFK1 and FBP1) or using AMP as a substrate (AMPD1, AK, and 5′-NT) were assayed in the presence of C2 (≤ 100 μM). Enzymes allosterically regulated by AMP were screened for both agonism and antagonism, the latter in the presence of AMP at ≈ EC50. All enzymes were unaffected by [C2] ≤ 100 μM. Representative data are shown for the effects of AMP and C2 on PFK1 and FBP1 activity. Results are representative of three independent experiments conducted on one enzyme preparation. […]
# [2] = molecular target: T2, fructose-1,6-bisphosphatase-1 (FBP1) (Mus musculus, UniProt Q9QXD6); experiment: FBP1 enzyme assay; assay type: biochemical
# T2 construct: made in house; host or cells: E. coli
# T2 sequence (Q9QXD6 whole entry): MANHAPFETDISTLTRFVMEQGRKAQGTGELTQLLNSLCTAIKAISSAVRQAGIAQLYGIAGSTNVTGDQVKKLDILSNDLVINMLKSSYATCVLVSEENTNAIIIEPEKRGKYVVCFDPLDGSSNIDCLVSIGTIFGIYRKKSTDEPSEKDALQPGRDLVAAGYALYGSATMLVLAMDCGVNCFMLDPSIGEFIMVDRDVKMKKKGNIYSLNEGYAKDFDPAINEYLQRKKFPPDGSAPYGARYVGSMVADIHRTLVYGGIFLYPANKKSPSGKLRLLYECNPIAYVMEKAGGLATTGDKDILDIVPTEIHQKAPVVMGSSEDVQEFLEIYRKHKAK
# Description: as §1
# T1 sequence (P47857 whole entry): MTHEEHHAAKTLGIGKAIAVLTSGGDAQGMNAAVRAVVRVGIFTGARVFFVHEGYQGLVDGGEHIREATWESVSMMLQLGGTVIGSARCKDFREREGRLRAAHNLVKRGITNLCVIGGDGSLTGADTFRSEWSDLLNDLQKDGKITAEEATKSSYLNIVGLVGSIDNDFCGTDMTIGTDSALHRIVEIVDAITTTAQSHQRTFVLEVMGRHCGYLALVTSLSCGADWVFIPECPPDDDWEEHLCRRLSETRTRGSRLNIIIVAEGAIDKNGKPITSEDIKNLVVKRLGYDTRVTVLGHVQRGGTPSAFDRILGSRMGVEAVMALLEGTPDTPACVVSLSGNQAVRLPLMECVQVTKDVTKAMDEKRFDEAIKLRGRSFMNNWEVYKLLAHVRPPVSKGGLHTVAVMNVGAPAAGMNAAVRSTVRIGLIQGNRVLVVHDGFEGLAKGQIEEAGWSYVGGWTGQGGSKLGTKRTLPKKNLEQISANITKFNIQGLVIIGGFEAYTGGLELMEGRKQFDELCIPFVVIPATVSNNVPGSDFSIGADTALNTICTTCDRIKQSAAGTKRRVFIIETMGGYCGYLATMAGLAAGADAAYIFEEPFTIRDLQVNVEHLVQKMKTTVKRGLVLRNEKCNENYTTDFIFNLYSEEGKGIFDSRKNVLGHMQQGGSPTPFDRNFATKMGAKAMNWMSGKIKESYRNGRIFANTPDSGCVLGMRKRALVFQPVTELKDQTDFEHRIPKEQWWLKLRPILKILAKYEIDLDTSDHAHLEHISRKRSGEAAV
SMILES,"EC50 ([1]; read-out: EC50, activation of PFK1) [µM]","IC50 ([2]; read-out: IC50, inhibition of FBP1) [µM]",effect on PFK1 ([1]; concentrations up to 100 μM),effect on FBP1 ([2]; concentrations up to 100 μM)
"Nc1ncnc2c1ncn2[C@@H]1O[C@H](COP(=O)(O)O)[C@@H](O)[C@H]1O [AMP, reference compound]",33,5,,
"O=P(O)(O)c1ccc(-c2cc(O)on2)o1 [Compound C2, 5-(5-hydroxyl-isoxazol-3-yl)-furan-2-phosphonic acid]",,,no effect,no effect
